Consider one cell line from the supplement of paper PMC10307832.

What all share (test): relative viability (nuclei count vs DMSO), 5 days (fraction); higher = more cells survive
Compound in the test “Decitabine + Linsitinib”: Nc1ncn([C@H]2C[C@H](O)[C@@H](CO)O2)c(=O)n1 [Decitabine] + C[C@]1(O)C[C@@H](c2nc(-c3ccc4ccc(-c5ccccc5)nc4c3)c3c(N)nccn32)C1 [Linsitinib] (partner 1 µM)
The method, boiled down: (§1)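 Relative viability divides the nuclei count in treated wells by that in vehicle wells. Lung cancer cell lines were seeded in 1536-well plates, dosed by pin tool the next day, and fixed and stained after 5 days in one step with final 0.05% Triton X-100, 1% formaldehyde and 1 ug/ml Hoechst. Dosing was a single drug or a fixed anchor-drug dose plus five library-drug doses (not always all listed) in √10 steps, and values are medians of duplicate plates imaged at 4×.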

Compound in test [1]: O=C(C[C@H]1NCCC[C@@H]1O)Cn1cnc2cc(Br)c(Cl)cc2c1=O (racemic) [Halofuginone] + CS(=O)(=O)N1CCN(Cc2cc3nc(-c4cccc5[nH]ncc45)nc(N4CCOCC4)c3s2)CC1 [Pictilisib] (partner 1 µM)
The method, boiled down: as §1

Compound in the test “Cediranib + Pictilisib”: COc1cc2c(Oc3ccc4[nH]c(C)cc4c3F)ncnc2cc1OCCCN1CCCC1 [Cediranib] + CS(=O)(=O)N1CCN(Cc2cc3nc(-c4cccc5[nH]ncc45)nc(N4CCOCC4)c3s2)CC1 [Pictilisib] (partner 1 µM)
The gist of the method: as §1

Compound in the test “Decitabine + Lapatinib”: Nc1ncn([C@H]2C[C@H](O)[C@@H](CO)O2)c(=O)n1 [Decitabine] + CS(=O)(=O)CCNCc1ccc(-c2ccc3ncnc(Nc4ccc(OCc5cccc(F)c5)c(Cl)c4)c3c2)o1 [Lapatinib] (partner 2 µM)
The method, boiled down: as §1

Consider UMC-11, for which the relative viability in the test with Decitabine + Linsitinib (first compound 0.04 µM) amounted to 0.976; in the test with Decitabine + Linsitinib (first compound 0.1265 µM), 0.802; with Decitabine + Linsitinib (first compound 0.4 µM), 0.448; with Decitabine + Linsitinib (first compound 1.265 µM) it was 0.38; with Decitabine + Linsitinib (first compound 4 µM) it was 0.335; in test [1] (first compound 0.001 µM), 0.9. The relative viability in test [1] (first compound 0.003162 µM) was found to be 0.76; in test [1] (first compound 0.01 µM) it was 0.772; in test [1] (first compound 0.03162 µM) it was 0.758; in test [1] (first compound 0.1 µM), 0.648; with Cediranib + Pictilisib (first compound 0.04 µM) it was 1.01; with Cediranib + Pictilisib (first compound 0.1265 µM) it was 0.316. The relative viability with Cediranib + Pictilisib (first compound 0.4 µM) worked out at 0.707; with Cediranib + Pictilisib (first compound 1.265 µM), 0.466; in the test with Cediranib + Pictilisib (first compound 4 µM), 0.862; with Decitabine + Lapatinib (first compound 0.04 µM), 0.877; with Decitabine + Lapatinib (first compound 0.1265 µM), 0.832; with Decitabine + Lapatinib (first compound 0.4 µM), 0.434. The values for the relative viability with Decitabine + Lapatinib (first compound 1.265 µM) and with Decitabine + Lapatinib (first compound 4 µM) were 0.357 and 0.346, respectively.
